Two compounds from US8349371B2, “Method for anti-oxidation, inhibiting activity and/or expression of matrix metalloproteinase, and/or inhibiting phosphorylation of mitogen-activated protein kinase using neonauclea reticulata leaf extracts” (China Medical University, priority 2010, dated 2013) can be followed below.

SMILES strings stand for the structures. Several values for one entry are separate records, joined by “and”; a condition that tells them apart may be missing. Equal values may be shown once.

The subject of one test is MMP-1. In words: Inhibition test of matrix metalloproteinase expression in UVB-irradiated fibroblast Hs68 (western blotting): MMP-1. As to conditions: expression relative to control group (1.00); UVB 40 mJ/cm^2, Hs68; 10 μg/mL. It counts as cell-based, human. The procedure:
(§1) A total of 5×10^5 fibroblast Hs68 (human foreskin fibroblast, Bioresource Collection and Research Center (BCRC) number:60038, purchased from Food Industry Research and Development Institute (FIRDI)) was counted and cultivated in a culture medium (90% Dulbecco's modified Eagle's medium adjusted with 4 mM of L-glutamine, containing 1.5 g/L NaHCO3, 4.5 g/L glucose, and 10% heat-inactivated fetal bovine serum) with a diameter of 10 cm. After the fibroblast Hs68 grew to a density of 80%, the culture solution was removed, and the cells were rinsed with 5 mL of a phosphate buffer saline (PBS) solution once. Then, 3 mL of a phenol red-free culture solution containing the Neonauclea reticulata leaf water extract with different concentrations ([…]) was added into the culture medium, and was reacted for 1 hour. The cells were placed under ultraviolet light (40 mJ/cm^2, Ultraviolet B (UVB)) for irradiation. […] Using luminescence imaging technology with an associated analysis software and LAS-4000 (FUJIFILM) to record the image, and a quantitative analysis was carried out by multi Gauge […] […]
A general note: Immunoblotting shows a protein as a band on a membrane.

The next test has as its system MMP-3. In words: Inhibition test of matrix metalloproteinase expression in UVB-irradiated fibroblast Hs68 (western blotting): MMP-3. As to conditions: expression relative to control group (1.00); UVB 40 mJ/cm^2, Hs68; 10 μg/mL. It counts as cell-based, human. The procedure: as §1
The subject of the next test is MMP-9. In words: Inhibition test of matrix metalloproteinase expression in UVB-irradiated fibroblast Hs68 (western blotting): MMP-9. It counts as cell-based, human. The settings on record: expression relative to control group (1.00); UVB 40 mJ/cm^2, Hs68; 10 μg/mL. The procedure:
as §1

Test [1] is described as follows: Anti-oxidation test: DPPH free radicals removal test. As to conditions: DPPH scavenging, 50 μg/mL. The test is classed as biochemical. The procedure:
A 100 μL of the Neonauclea reticulata leaf water extract, methanol extract, or the hydrolytes thereof with different concentrations (10 to 100 μg/mL) and a 100 μL. DPPH solution (200 μM) dissolved in methanol were added in a 96-well microplate, and were mixed evenly and placed under 37° C. away from light for 30 minutes. The absorbance of the mixture was determined by an enzyme immunoassay instrument under a wavelength of 517 nm. In this test, the extract was replaced by 50 vol % propylene glycol as the control group, and ascorbic acid (vitamin C) was used as a positive control group, and DPPH was replaced by methanol for determining the background value. The ability of the Neonauclea reticulata leaf extract to remove free radicals was calculated by the following formula. The results are shown in Table 5 to Table 7 and FIG. 12 to FIG. 14. [formula]
Background: The DPPH test is a chemical assay of radical scavenging.

In the test with MMP-1, `O=C(O[C@@H]1Cc2c(O)cc(O)cc2O[C@@H]1c1cc(O)c(O)c(O)c1)c1cc(O)c(O)c(O)c1` [EGCG] had an MMP-1 of 1.10 ± 0.15. This compound gave an MMP-3 in the test on MMP-3 of 1.15 ± 0.16. Moreover, the MMP-9 in the test on MMP-9 stood at 0.95 ± 0.26.
With `O=C1O[C@H]([C@@H](O)CO)C(O)=C1O` [Vitamin C, ascorbic acid], the Inhibition in test [1] (Table 5) came out at 98.60 ± 0.32. For the same compound, the “Inhibition Rate” value in test [1] (Tables 6 and 7) was 88.36 ± 2.71 and 97.99 ± 0.12.
